Measured values from US20130005721A1, “INDOLIZINE INHIBITORS OF 5-LIPOXYGENASE” (PANMIRA PHARMACEUTICALS, LLC, priority 2009, published 2013).

Tested on: human leukocytes (LTB4 production, calcium ionophore stimulated)
Assay: Human Leukocyte LTB4 Inhibition Assay
Assay type: cell-based
Conditions: LTB4 by ELISA, read-out: LTB4 HLA IC50
Method: Human Leukocyte LTB4 Inhibition Assay
A non-limiting example of a human leukocyte inhibition assay is as follows; Blood was drawn from consenting human volunteers into heparanized tubes and 3% dextran 0.9% saline ⅓ rd volume added. After sedimentation of red blood cells a hypotonic lysis of remaining red blood cells was performed and leukocytes sedimented at 1200 rpm. The pellet was resuspended at 1.25×10^5 cells/ml and aliquoted into wells containing 1 μL 100% DMSO (vehicle) or 2.5 μL drug in 100% DMSO. Samples were incubated for 5 minutes at 37° C. and 2 μL calcium ionophore […] (from a 50 mM DMSO stock diluted just prior to the assay in Hanks balanced salt solution (Invitrogen)) to 1.25 mM) was added, solutions mixed and incubated for 30 minutes at 37° C. Samples were centrifuged at 1,200 rpm (−200×g) for 10 minutes at 4° C., plasma removed and a 1:4 dilution assayed for LTB4 concentration using ELISA (Assay Designs). Drug concentrations to achieve 50% inhibition (IC50's) of vehicle LTB4 were determined by nonlinear regression (Graphpad Prism) of % inhibition versus log drug concentration.

Row | IC50 | Structure (SMILES)
1 | < 300 nM | CCC(O)(c1cn(Cc2ccn3c(-c4ccc(F)cc4)c(C(N)=O)cc3c2)nn1)C(F)(F)F (single isomer, unassigned) [Compound 1-10, 3-(4-Fluoro-phenyl)-7-[4-(1-hydroxy-1-trifluoromethyl-propyl)-[1,2,3]triazol-1-ylmethyl]-indolizine-2-carboxylic acid amide]
2 | < 300 nM | CCC(O)(c1nnc(NCc2ccn3c(-c4ccc(F)cc4)c(C(N)=O)cc3c2)o1)C(F)(F)F (single isomer, unassigned) [Compound 1-21, 3-(4-Fluoro-phenyl)-7-{[5-(1-hydroxy-1-trifluoromethyl-propyl)-[1,3,4]oxadiazol-2-ylamino]-methyl}-indolizine-2-carboxylic acid amide]

Same assay, conditions: Leukocyte, LTB4 by ELISA, read-out: LTB4 HLA IC50

Row | IC50 | Structure (SMILES)
3 | < 300 nM | CCC(O)(c1cn(Cc2ccn3c(-c4ccc(F)cc4)c(C(N)=O)cc3c2)nn1)C(F)(F)F (single isomer, unassigned) [Compound 1-9, 3-(4-Fluoro-phenyl)-7-[4-(1-hydroxy-1-trifluoromethyl-propyl)-[1,2,3]triazol-1-ylmethyl]-indolizine-2-carboxylic acid amide]
4 | < 300 nM | CCC(O)(c1nnc(NCc2ccn3c(-c4ccc(F)cc4)c(C(N)=O)cc3c2)o1)C(F)(F)F (single isomer, unassigned) [Compound 1-20, 3-(4-Fluoro-phenyl)-7-{[5-(1-hydroxy-1-trifluoromethyl-propyl)-[1,3,4]oxadiazol-2-ylamino]-methyl}-indolizine-2-carboxylic acid amide]
5 | > 1000 nM | CCC(OC(=O)c1ccc([N+](=O)[O-])cc1)(c1cn(Cc2ccn3c(-c4ccc(C)nc4)c(C(N)=O)cc3c2)nn1)C(F)(F)F (single isomer, unassigned) [Compound 1-75, 4-Nitro-benzoic acid 1-{1-[2-carbamoyl-3-(6-methyl-pyridin-3-yl)-indolizin-7-ylmethyl]-1H-[1,2,3]triazol-4-yl}-1-trifluoromethyl-propyl ester]
6 | < 300 nM | CCC(O)(c1cn(Cc2ccn3c(-c4ccc(C)nc4)c(C#N)cc3c2)nn1)C(F)(F)F (single isomer, unassigned) [Compound 1-76, 7-[4-(1-Hydroxy-1-trifluoromethyl-propyl)-[1,2,3]triazol-1-ylmethyl]-3-(6-methyl-pyridin-3-yl)-indolizine-2-carbonitrile]
7 | < 300 nM | CCOC(=O)c1cc2cc(Cn3cc(C(O)(CC)C(F)(F)F)nn3)ccn2c1C(C)C (single isomer, unassigned) [Compound 1-77, 7-[4-(1-Hydroxy-1-trifluoromethyl-propyl)-[1,2,3]triazol-1-ylmethyl]-3-isopropyl-indolizine-2-carboxylic acid ethyl ester]
8 | < 300 nM | CCC(O)(c1cn(Cc2ccn3c(-c4ccc(OC)nc4)c(C(N)=O)cc3c2)nn1)C(F)(F)F (single isomer, unassigned) [Compound 1-78, 7-[4-(1-Hydroxy-1-trifluoromethyl-propyl)-[1,2,3]triazol-1-ylmethyl]-3-(6-methoxy-pyridin-3-yl)-indolizine-2-carboxylic acid amide]
9 | < 300 nM | CCC(O)(c1cn(Cc2ccn3c(-c4ccc(OC)nc4)c(C#N)cc3c2)nn1)C(F)(F)F (single isomer, unassigned) [Compound 1-79, 7-[4-(1-Hydroxy-1-trifluoromethyl-propyl)-[1,2,3]triazol-1-ylmethyl]-3-(6-methoxy-pyridin-3-yl)-indolizine-2-carbonitrile]
10 | < 300 nM | CCC(O)(c1cn(Cc2ccn3c(-c4ccnc(C)c4)c(C#N)cc3c2)nn1)C(F)(F)F (single isomer, unassigned) [Compound 1-80, 7-[4-(1-Hydroxy-1-trifluoromethyl-propyl)-[1,2,3]triazol-1-ylmethyl]-3-(2-methyl-pyridin-4-yl)-indolizine-2-carbonitrile]
11 | < 300 nM | CCC(O)(c1cn(Cc2ccn3c(C(C)C)c(C#N)cc3c2)nn1)C(F)(F)F (single isomer, unassigned) [Compound 1-81, 7-[4-(1-Hydroxy-1-trifluoromethyl-propyl)-[1,2,3]triazol-1-ylmethyl]-3-isopropyl-indolizine-2-carbonitrile]
